The record followed here is US7892350B2, “Sacrificial agents for fly ash concrete” (Boral Material Technologies Inc., priority 2003, dated 2011).

The nature of the first experiment: Second sacrificial agent testing protocol: paste air measurements with DDBS (0.0125 wt %) and rating. As to Overall performance rating (second protocol rating): key: 0: Fail; 1: Poor; 2: Good; 3: Preferred; 4: Most preferred. As to SA Rating (0-4): key: 0: Fail; 1: Poor; 2: Good; 3: Preferred; 4: Most preferred.
Settings: not given
In a few lines: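 Air entrainment was measured in cement pastes of fixed composition and fluidity. The candidate agent was tested alone at 0.1 wt % in a cement-only paste. It was also tested at 0.05 and 0.1 wt % in a fly ash (B1)-cement paste with DDBS, where air recovery was calculated against the same paste without agent.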
For the compound `OC[C@@H](O)[C@@H](O)[C@H](O)[C@@H](O)CO` [Sorbitol], the “Overall performance rating (second protocol rating)” value (from here on “Overall performance rating”) turned out to be 1.

For `CCCC[N+](CCCC)(CCCC)CCCC.[Cl-]` [Tetrabutyl ammonium chloride], the “B1 + 0.0125% DDBS + 0.05% SA (air entrainment)” value (“B1 + 0.0125% DDBS + 0.05% SA” for short) amounted to 4.9, the “B1 + 0.0125% DDBS + 0.1% SA (air entrainment)” value (“B1 + 0.0125% DDBS + 0.1% SA” for short) came to 4.1, the “Overall performance rating” value was 3 and the “PCA + 0.1% SA (level of air entrainment by the candidate sacrificial agent)” value (“PCA + 0.1% SA” for short) is reported as 0.6. In addition, the “SA Rating (0-4)” value stood at 3.

Regarding `CC[N+](CC)(CC)CC.[OH-]` [Tetraethyl ammonium hydroxide], the “B1 + 0.0125% DDBS + 0.05% SA” value is 2.3, the “B1 + 0.0125% DDBS + 0.1% SA” value is 3.0, the “PCA + 0.1% SA” value was 0.1 and the “SA Rating (0-4)” value came out at 0.

For `CC(O)CN(CC(C)O)CC(C)O` (stereo not shown) [Tri-iso-propanolamine], the “Overall performance rating” value worked out at 4.

In the case of `CCN(CC)CC` [Triethylamine], the “B1 + 0.0125% DDBS + 0.05% SA” value worked out at 5.2, the “B1 + 0.0125% DDBS + 0.1% SA” value is reported as 5.1, the “Overall performance rating” value came out at 4 and the “PCA + 0.1% SA” value worked out at 0.5. For the same compound, the “SA Rating (0-4)” value came to 4.

As to `NC(N)=O` [Urea], the “Overall performance rating” value amounted to 2.

For `CC(C)O` [i-Propanol], the “Overall performance rating” value is recorded as 1.

Consider `CCCO` [n-Propanol], for which the “B1 + 0.0125% DDBS + 0.05% SA” value was determined as 3.5, the “B1 + 0.0125% DDBS + 0.1% SA” value is recorded as 4.4, the “Overall performance rating” value is given as 1 and the “PCA + 0.1% SA” value turned out to be 2.0. In addition, the “SA Rating (0-4)” value turned out to be 1.

As to `C=CN1CCCC1=O` [n-Vinyl-2-pyrrolidinone], the “Overall performance rating” value was determined as 1.

Turning to `CCCCN` [n-butyl amine], the “Overall performance rating” value is 4.

On to `COc1ccc(OC)cc1` [p-Dimethoxybenzene], for which the “Overall performance rating” value was 2.

Regarding `Cc1ccc(S(=O)(=O)O)cc1` [p-Toluene Sulfonic acid], the “Overall performance rating” value came to 3.

For the compound `CC(C)(C)O` [t-Butanol], the “Overall performance rating” value turned out to be 4.

Take `OCCOCCOCCO` [tri-Ethylene Glycol]: the “Overall performance rating” value is listed as 1.

Regarding `CC(O)COC(C)COC(C)CO` (stereo not shown) [tri-Propylene glycol], the “Overall performance rating” value was determined as 4.

On to P(EG-ran-propylene-glycol) 2500, for which the “Overall performance rating” value turned out to be 4.

On to Tetramethyl ammonium hydroxide, for which the “B1 + 0.0125% DDBS + 0.05% SA” value was 2.5, the “B1 + 0.0125% DDBS + 0.1% SA” value is given as 2.9, the “PCA + 0.1% SA” value is 0.1 and the “SA Rating (0-4)” value is 0.

The experiment is the same for the next values; noted with them: B1 FA/cement paste; 0.0125 wt % DDBS; 0.05 wt % SA.
Regarding `O=P(O)(O)OP(=O)(O)OP(=O)(O)O` [Sodium tripolyphosphate], the “B1 + 0.0125% DDBS + 0.05% SA” value came out at 2.2.

In the case of `CCCCNC(N)=O` [n-butyl urea], the “B1 + 0.0125% DDBS + 0.05% SA” value is 5.3.

The same experiment, now with this note: B1 FA/cement paste; 0.0125 wt % DDBS; 0.10 wt % SA.
Regarding `O=P(O)(O)OP(=O)(O)OP(=O)(O)O` [Sodium tripolyphosphate], the “B1 + 0.0125% DDBS + 0.1% SA” value is reported as 1.9.

As for `CCCCNC(N)=O` [n-butyl urea], the “B1 + 0.0125% DDBS + 0.1% SA” value is on record as 7.5.

Staying with this experiment, now noted: B1 FA/cement paste; […].
On to `OC[C@@H](O)[C@@H](O)[C@H](O)[C@@H](O)CO` [Sorbitol], for which the “B1 + 0.0125% DDBS + 0.05% SA” value turned out to be 2.2 and the “B1 + 0.0125% DDBS + 0.1% SA” value is 4.2.

As to `CC(O)CN(CC(C)O)CC(C)O` (stereo not shown) [Tri-isopropanolamine], the “B1 + 0.0125% DDBS + 0.05% SA” value turned out to be 5.6 and the “B1 + 0.0125% DDBS + 0.1% SA” value came out at 7.6.

In the case of `CCCN(CCC)CCC` [Tripropylamine], the “B1 + 0.0125% DDBS + 0.05% SA” value came out at 2.6 and the “B1 + 0.0125% DDBS + 0.1% SA” value is reported as 2.4.

In the case of `NC(N)=O` [Urea], the “B1 + 0.0125% DDBS + 0.1% SA” value is on record as 2.0.

As to `CC(C)O` [i-Propanol], the “B1 + 0.0125% DDBS + 0.05% SA” value amounted to 3.7 and the “B1 + 0.0125% DDBS + 0.1% SA” value is listed as 4.1.

Regarding `C=CN1CCCC1=O` [n-Vinyl-2-pyrrolidinone], the “B1 + 0.0125% DDBS + 0.05% SA” value worked out at 3.7 and the “B1 + 0.0125% DDBS + 0.1% SA” value stood at 4.3.

For `CCCCN` [n-butyl amine], the “B1 + 0.0125% DDBS + 0.05% SA” value was 5.7 and the “B1 + 0.0125% DDBS + 0.1% SA” value stood at 8.1.

Take `COc1ccc(OC)cc1` [p-Dimethoxybenzene]: the “B1 + 0.0125% DDBS + 0.05% SA” value amounted to 4.7 and the “B1 + 0.0125% DDBS + 0.1% SA” value was found to be 4.0.

Consider `Cc1ccc(S(=O)(=O)O)cc1` [p-Toluene Sulfonic acid], for which the “B1 + 0.0125% DDBS + 0.05% SA” value turned out to be 3.9 and the “B1 + 0.0125% DDBS + 0.1% SA” value is given as 5.1.

As to `CC(C)(C)O` [tert-Butanol], the “B1 + 0.0125% DDBS + 0.05% SA” value is 6.3 and the “B1 + 0.0125% DDBS + 0.1% SA” value is 7.0.

As for `OCCOCCOCCO` [tri-Ethylene Glycol], the “B1 + 0.0125% DDBS + 0.05% SA” value is 3.1 and the “B1 + 0.0125% DDBS + 0.1% SA” value stood at 4.1.

Turning to `CC(O)COC(C)COC(C)CO` (stereo not shown) [tri-Propylene glycol], the “B1 + 0.0125% DDBS + 0.05% SA” value was found to be 7.8 and the “B1 + 0.0125% DDBS + 0.1% SA” value is 9.2.

For Aniline (Phenylamine), the “B1 + 0.0125% DDBS + 0.05% SA” value amounted to 3.7 and the “B1 + 0.0125% DDBS + 0.1% SA” value amounted to 5.6.

The same experiment, now with this note: Portland cement paste (PCA); […].
`O=P(O)(O)OP(=O)(O)OP(=O)(O)O` [Sodium tripolyphosphate]: the “PCA + 0.1% SA” value was determined as 0.2.

Turning to `OC[C@@H](O)[C@@H](O)[C@H](O)[C@@H](O)CO` [Sorbitol], the “PCA + 0.1% SA” value was 0.5.

`CC(O)CN(CC(C)O)CC(C)O` (stereo not shown) [Tri-isopropanolamine]: the “PCA + 0.1% SA” value was 1.3.

For the compound `CCCN(CCC)CCC` [Tripropylamine], the “PCA + 0.1% SA” value turned out to be 0.3.

Consider `NC(N)=O` [Urea], for which the “PCA + 0.1% SA” value was found to be 0.1.

In the case of `CC(C)O` [i-Propanol], the “PCA + 0.1% SA” value is on record as 2.4.

In the case of `C=CN1CCCC1=O` [n-Vinyl-2-pyrrolidinone], the “PCA + 0.1% SA” value came to 2.8.

In the case of `CCCCN` [n-butyl amine], the “PCA + 0.1% SA” value was found to be 1.2.

With `CCCCNC(N)=O` [n-butyl urea], the “PCA + 0.1% SA” value is given as 2.1.

In the case of `COc1ccc(OC)cc1` [p-Dimethoxybenzene], the “PCA + 0.1% SA” value worked out at 0.7.

`Cc1ccc(S(=O)(=O)O)cc1` [p-Toluene Sulfonic acid]: the “PCA + 0.1% SA” value is reported as 0.7.

`CC(C)(C)O` [tert-Butanol]: the “PCA + 0.1% SA” value amounted to 0.8.

Take `OCCOCCOCCO` [tri-Ethylene Glycol]: the “PCA + 0.1% SA” value turned out to be 0.9.

In the case of `CC(O)COC(C)COC(C)CO` (stereo not shown) [tri-Propylene glycol], the “PCA + 0.1% SA” value is 1.6.

Aniline (Phenylamine): the “PCA + 0.1% SA” value was 1.7.

Staying with this experiment, now noted: sacrificial agent overall rating index.
Turning to `O=P(O)(O)OP(=O)(O)OP(=O)(O)O` [Sodium tripolyphosphate], the “SA Rating (0-4)” value turned out to be 0.

As for `OC[C@@H](O)[C@@H](O)[C@H](O)[C@@H](O)CO` [Sorbitol], the “SA Rating (0-4)” value was 1.

For `CC(O)CN(CC(C)O)CC(C)O` (stereo not shown) [Tri-isopropanolamine], the “SA Rating (0-4)” value was 4.

As to `CCCN(CCC)CCC` [Tripropylamine], the “SA Rating (0-4)” value is given as 0.

Regarding `NC(N)=O` [Urea], the “SA Rating (0-4)” value turned out to be 2.

For the compound `CC(C)O` [i-Propanol], the “SA Rating (0-4)” value is 1.

With `C=CN1CCCC1=O` [n-Vinyl-2-pyrrolidinone], the “SA Rating (0-4)” value came to 1.

Turning to `CCCCN` [n-butyl amine], the “SA Rating (0-4)” value is given as 4.

In the case of `CCCCNC(N)=O` [n-butyl urea], the “SA Rating (0-4)” value came out at 4.

With `COc1ccc(OC)cc1` [p-Dimethoxybenzene], the “SA Rating (0-4)” value was determined as 2.

Regarding `Cc1ccc(S(=O)(=O)O)cc1` [p-Toluene Sulfonic acid], the “SA Rating (0-4)” value is on record as 3.

Take `CC(C)(C)O` [tert-Butanol]: the “SA Rating (0-4)” value amounted to 4.

With `OCCOCCOCCO` [tri-Ethylene Glycol], the “SA Rating (0-4)” value was 1.

With `CC(O)COC(C)COC(C)CO` (stereo not shown) [tri-Propylene glycol], the “SA Rating (0-4)” value is listed as 4.

For the compound Aniline (Phenylamine), the “SA Rating (0-4)” value worked out at 2.

Still in this experiment, the particulars now being: sum of ratings of air entrainment recovery by 0.05% and 0.1% SA; DDBS 0.0125 wt %, 50:50 B1 fly ash:cement paste.
For `CCCCNC(N)=O` [n-butyl urea], the “Overall performance rating” value came to 4.

As for Methylnaphthalene sulfonate Na, the “Overall performance rating” value amounted to 4.

In the case of POE (20) Sorbitan monolaurate [Tween®], the “Overall performance rating” value turned out to be 4.

Take Polyethylene glycol 400: the “Overall performance rating” value came to 4.

For Polyethylene glycol 2000, the “Overall performance rating” value came to 4.

Turning to Polypropylene glycol 425, the “Overall performance rating” value is 4.
